Measured values: US9056840B2, “Coelenterazine analogues and coelenteramide analogues” (JNC Corporation, priority 2010, dated 2015)
Entries after “also recorded” stand apart in the source; their conditions may differ.

What was measured:
Gaussia luciferase = assay: Substrate specificity and luminescence activity of Gaussia luciferase; format: biochemical; conditions: measured for 10 seconds, coelenterazine = 100
Experimental: Gaussia luciferase was purified by the method described in Japanese Patent Application KOKAI No. 2008-099669 and provided for use. After 1 μl of Gaussia luciferase (0.024 mg/ml) was dissolved in 100 μl of phosphate buffered saline (manufactured by Sigma Inc.) containing 0.01% Tween 20 (manufactured by Sigma Inc.) and 10 mM EDTA, 1 μl of a solution of coelenterazine or its analogue (1 μg/μl) in ethanol was mixed with the solution to start the luminescence reaction. The luminescence activity was measured for 10 seconds on a luminometer luminescencer-PSN AB2200 (manufactured by Atto Co., Ltd.). The luminescence activity was determined by repeating the measurement described above 3 times and expressed in terms of the maximum luminescence intensity (Imax) of luminescence activity.

apoaequorin [1] = target: T1, apoaequorin (Aequorea victoria, UniProt P07164); assay: Fluorescence spectra of fluorescent proteins formed from semi-synthetic aequorins by Ca2+; format: physicochemical; conditions: for Maximum fluorescence wavelength λmax (nm) / Relative fluorescence intensity (rlu): fluorescent protein generated by calcium from semi-synthetic aequorin, excitation 330 nm, 25° C.; for fluorescence spectra of fluorescent proteins versus emission spectra of semi-synthetic aequorins, in words: same coelenterazine analogue
T1 construct: purchased Chisso Corporation
Experimental: The fluorescence spectra of novel fluorescent proteins formed by the Ca^2+-triggerd reaction from semi-synthetic aequorins in EXAMPLE 3 were measured at 25° C. in a quartz cell (10 mm light path length) using a Jasco FP-6500 spectrofluorometer (excitation wavelength: 330 nm, emission/excitation bandwidth: 3 nm; response: 0.5 sec, scan speed, 1000 nm/min). The fluorescence spectra measured were corrected.

Renilla luciferase = target: T2, Renilla luciferase (Renilla reniformis, UniProt P27652); assay: Substrate specificity and luminescence activity of Renilla luciferase; format: biochemical; conditions: measured for 10 seconds, coelenterazine = 100
T2 construct: made in house
T2 sequence (P27652 1-311): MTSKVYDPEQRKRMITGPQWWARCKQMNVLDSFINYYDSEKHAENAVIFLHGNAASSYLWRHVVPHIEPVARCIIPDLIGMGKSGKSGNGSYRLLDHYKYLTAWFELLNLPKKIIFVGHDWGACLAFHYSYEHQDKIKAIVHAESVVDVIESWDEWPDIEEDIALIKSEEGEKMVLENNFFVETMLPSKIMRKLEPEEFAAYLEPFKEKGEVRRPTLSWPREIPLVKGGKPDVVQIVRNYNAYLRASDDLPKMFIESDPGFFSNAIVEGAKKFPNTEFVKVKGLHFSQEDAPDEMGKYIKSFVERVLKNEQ
Experimental: Renilla luciferase was purified by the method described in Inouye, S. & Shimomura, O. Biochem. Biophys. Res. Commun. (1997) 233: 349-353, and used for assay.
(§1) After 1 μl of Renilla luciferase (0.45 mg/ml) was dissolved in 100 μl of 30 mM Tris-HCl (pH 7.6) containing 10 mM EDTA, 1 μl of a solution of coelenterazine or its analogue (1 μg/μl) in ethanol was added to the solution to start the luminescence reaction. The luminescence activity was measured for 10 seconds on a luminometer luminescencer-PSN AB2200 (manufactured by Atto Co., Ltd.). The luminescence activity was determined by repeating the measurement of luminescence activity described above 3 times and expressed in terms of the maximum luminescence intensity (Imax) of luminescence activity.

apoaequorin [2] = target: T1, apoaequorin; assay: Luminescence patterns of semi-synthetic aequorins, half decay time; format: biochemical; conditions: for Half decay time: semi-synthetic aequorin, time in which luminescence becomes half of maximum, patterns measured for 60 seconds
Experimental: A solution of the regenerated semi-synthetic aequorin was diluted to 10-fold with 20 mM Tris-HCl (pH 7.6) containing 0.1% BSA (manufactured by Sigma, Inc.), 0.01 mM EDTA and 150 mM NaCl. The dilution was dispensed into a 96-well microplate (Nunc #236108) at 5 μl/well. The luminescence reaction was triggered by injecting 50 mM Tris-HCl (pH 7.6) containing 50 mM calcium chloride solution at 100 μl/well. The luminescence patterns for 60 seconds were measured to determine half decay time of the luminescence (a time period in which the luminescence becomes half of the maximum luminescence intensity).

[3] = target: T3, 19 kDa protein from Oplophorus luciferase (Oplophorus gracilirostris, UniProt Q9GV45); assay: Substrate specificity and luminescence activity of the 19 kDa protein from Oplophorus luciferase; format: biochemical; conditions: measured for 60 seconds, coelenterazine = 100
T3 construct: made in house
Experimental: The 19 kDa protein from Oplophorus luciferase was purified by the method described in Inouye, S. and Sasaki, S., Protein Express. Purif. (2007) 56: 261-268 and provided for use.
as §1, with “of the 19 kDa protein (2.3 mg/ml) from Oplophorus” for “of Renilla”, “luciferase containing 1 mM DTT” for “luciferase (0.45 mg/ml)”, “luminescence reaction, and the” for “luminescence reaction. The”, “for 60” for “for 10”, “measurement” for “measurement of luminescence activity”

apoaequorin [4] = target: T1, apoaequorin; assay: Luminescence spectra of semi-synthetic aequorins; format: biochemical; conditions: semi-synthetic aequorin, calcium added, 22 to 25° C.
Experimental: In a quartz cell with light path length of 10 mm, 1 ml of 50 mM Tris-HCl (pH 7.6) containing 1 mM EDTA and 100 μl (100 μg protein) of a solution of the regenerated semi-synthetic aequorin were charged. Next, 100 μl of 50 mM Tris-HCl (pH 7.6) containing 0.1 ml of 10 mM calcium chloride solution was added thereto to start the luminescence reaction. The spectra were measured on a spectrofluorimeter (FP-6500, manufactured by Jasco Co., Ltd.) with the excitation light source turned off. The measurement conditions were bandwidth: 20 nm, response: 0.5 second, scan speed: 2000 nm/min and 22 to 25° C. The luminescence spectra measured were corrected.

apoaequorin [5] = target: T1, apoaequorin; assay: Calcium standard curve with semi-synthetic aequorins; format: biochemical; conditions: FIG. 3; Imax versus calcium concentration
Experimental: In 9 ml of 50 mM Tris-HCl (pH 7.6), 1 ml of 1 g/L calcium carbonate standard solution (manufactured by Wako Pure Chemicals) was diluted to prepare 10^−3 M calcium carbonate solution. One milliliter of the resulting 10^−3 M calcium carbonate solution was taken and added to 9 ml of 50 mM Tris-HCl (pH 7.6) to prepare 10^−4 M calcium carbonate solution. Next, 3 ml of the resulting 10^−4 M calcium carbonate solution was taken and added to 6 ml of 50 mM Tris-HCl (pH 7.6) to prepare […] calcium carbonate solution. One milliliter from the 10^−4 M calcium carbonate solution obtained was added to 9 ml of 50 mM Tris-HCl (pH 7.6) to prepare 10^−5 M calcium carbonate solution. Then, 3 ml of the resulting 10^−5 M calcium carbonate solution was taken and added to 6 ml of 50 mM Tris-HCl (pH 7.6) to prepare 3×10^−5 M calcium carbonate solution. A dilution series was prepared by successively repeating the procedures described above to give the 10^−3 M to 10^−8 M calcium standard solutions.
In 5 ml of 50 mM Tris-HCl (pH 7.6) containing 10 mM DTT and 30 mM EDTA, 5 mg of recombinant apoaequorin (manufactured by Chisso Corporation) was dissolved and 100 μg of coelenterazine analogue dissolved in ethanol in an amount of 1.2-fold equivalent was added to the solution. The mixture was allowed to stand at 4° C. overnight to convert into semi-synthetic aequorin. The resulting semi-synthetic aequorin was concentrated using Amicon Ultra-4 (manufactured by Millipore, Inc., molecular weight cut-off: 10,000) to remove an excessive of coelenterazine analogue. The mixture was then washed 3 times with 3 ml of 30 mM Tris-HCl (pH 7.6) containing 0.05 mM EDTA to give the solution of semi-synthetic aequorin containing 0.05 mM EDTA. This semi-synthetic aequorin solution (2.5 mg/ml) was diluted with 20 mM Tris-HCl (pH 7.6) containing 0.1% BSA (manufactured by Sigma), 0.01 mM EDTA and 150 mM NaCl.
The calcium standard solution prepared as above was dispensed into a 96-well microplate (Nunc #236108) at 50 μl/well and 10 μl of the diluted semi-synthetic aequorin solution was injected into 50 μl of various concentration of calcium standard solution. The luminescence intensity was measured for 60 seconds on a luminescence plate reader Centro LB960 (manufactured by Berthold) and expressed in terms of the maximum intensity (Imax) of luminescence. The luminescence intensity was measured on each semi-synthetic aequorin in the same procedures. Semi-synthetic aequorins for practically use were chosen by the maximum intensity (Imax) of luminescence and the calcium standard curve of semi-synthetic aequorin was prepared.

T1 sequence (P07164 other isoform, or with tags, fused parts or gaps with the stated changes): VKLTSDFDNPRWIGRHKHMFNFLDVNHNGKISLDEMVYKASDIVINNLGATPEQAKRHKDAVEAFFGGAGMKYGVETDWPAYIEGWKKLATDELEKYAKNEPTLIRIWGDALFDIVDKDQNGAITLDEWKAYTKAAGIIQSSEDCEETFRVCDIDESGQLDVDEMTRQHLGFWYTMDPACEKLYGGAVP
T3 sequence (Q9GV45 28-196): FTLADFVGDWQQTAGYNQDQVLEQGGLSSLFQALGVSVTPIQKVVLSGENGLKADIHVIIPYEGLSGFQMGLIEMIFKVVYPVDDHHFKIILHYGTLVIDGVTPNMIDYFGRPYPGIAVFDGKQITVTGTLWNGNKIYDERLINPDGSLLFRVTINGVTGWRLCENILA

## Oc1ccc(Cc2nc3c(Cc4ccccc4)nc(-c4ccc(O)cc4)cn3c2O)cc1 [Coelenterazine]
Gaussia luciferase
  Luminescence activity Imax (%): 100.0%
Apoaequorin [1]
  Maximum fluorescence wavelength λmax (nm): 473.0 nm
  Relative fluorescence intensity (rlu): 63.3 rlu
Renilla luciferase
  Luminescence activity Imax (%): 100.0%
Apoaequorin [2]
  Half decay time: 0.81 s
[3]
  Luminescence activity Imax (%): 100.0%
Apoaequorin [4]
  Maximum luminescence wavelength λmax (nm): 472.5 nm

## O=c1c(Cc2ccc(O)cc2)nc2c(-c3ccccc3)[nH]c(-c3ccc(O)cc3)cn1-2 [Compound 3a, 2-(4-Hydroxybenzyl)-6-(4-hydroxyphenyl)-8-phenylimidazo[1,2-a]pyrazin-3(7H)-one]
Apoaequorin [5]
  calcium standard curve with semi-synthetic aequorin, in words: calcium standard curve can be prepared
Gaussia luciferase
  Luminescence activity Imax (%): 0.00%
Apoaequorin [1]
  Maximum fluorescence wavelength λmax (nm): 501.5 nm
  Relative fluorescence intensity (rlu): 118.1 rlu
  fluorescence spectra of fluorescent proteins versus emission spectra of semi-synthetic aequorins, in words: different luminescence spectra and fluorescence spectra
Renilla luciferase
  Luminescence activity Imax (%): 0.00%
Apoaequorin [2]
  half decay time of luminescence compared to coelenterazine (native aequorin), in words: markedly prolonged; also recorded: longer half decay time
  Half decay time: 15.7 s
[3]
  Luminescence activity Imax (%): 0.4%
Apoaequorin [4]
  Maximum luminescence wavelength λmax (nm): 494.0 nm

## O=c1c(Cc2ccc(O)cc2)nc2c(/C=C/c3ccccc3)[nH]c(-c3ccc(O)cc3)cn1-2 [Compound 3b]
Apoaequorin [5]
  calcium standard curve with semi-synthetic aequorin, in words: calcium standard curve can be prepared
Gaussia luciferase
  Luminescence activity Imax (%): 0.01%
Apoaequorin [1]
  Maximum fluorescence wavelength λmax (nm): 580.0 nm
  Relative fluorescence intensity (rlu): 10.3 rlu
  fluorescence spectra of fluorescent proteins versus emission spectra of semi-synthetic aequorins, in words: markedly different; also recorded: different luminescence spectra and fluorescence spectra
Renilla luciferase
  Luminescence activity Imax (%): 0.00%
Apoaequorin [2]
  half decay time of luminescence compared to coelenterazine (native aequorin), in words: longer half decay time
  Half decay time: 0.96 s
[3]
  Luminescence activity Imax (%): 0.07%
Apoaequorin [4]
  Maximum luminescence wavelength λmax (nm): 447.0 nm

## O=c1c(Cc2ccc(O)cc2)nc2c(-c3cccc4ccccc34)[nH]c(-c3ccc(O)cc3)cn1-2 [Compound 3d, 2-(4-Hydroxybenzyl)-6-(4-hydroxyphenyl)-8-(naphthalen-1-yl)imidazo[1,2-a]pyrazin-3(7H)-one]
Apoaequorin [5]
  calcium standard curve with semi-synthetic aequorin, in words: calcium standard curve can be prepared
Gaussia luciferase
  Luminescence activity Imax (%): 0.00%
Apoaequorin [1]
  Maximum fluorescence wavelength λmax (nm): 482.5 nm
  Relative fluorescence intensity (rlu): 61.8 rlu
Renilla luciferase
  Luminescence activity Imax (%): 0.00%
Apoaequorin [2]
  half decay time of luminescence compared to coelenterazine (native aequorin), in words: longer half decay time
  Half decay time: 1.10 s
[3]
  Luminescence activity Imax (%): 0.3%
Apoaequorin [4]
  Maximum luminescence wavelength λmax (nm): 480.0 nm

## O=c1c(Cc2ccc(O)cc2)nc2c(-c3ccc4ccccc4c3)[nH]c(-c3ccc(O)cc3)cn1-2 [Compound 3e, 2-(4-Hydroxybenzyl)-6-(4-hydroxyphenyl)-8-(naphthalen-2-yl)imidazo[1,2-a]pyrazin-3(7H)-one]
Apoaequorin [5]
  calcium standard curve with semi-synthetic aequorin, in words: calcium standard curve can be prepared
Gaussia luciferase
  Luminescence activity Imax (%): 0.00%
Apoaequorin [1]
  Maximum fluorescence wavelength λmax (nm): 468.5 nm
  Relative fluorescence intensity (rlu): 28.0 rlu
  fluorescence spectra of fluorescent proteins versus emission spectra of semi-synthetic aequorins, in words: markedly different; also recorded: different luminescence spectra and fluorescence spectra
Renilla luciferase
  Luminescence activity Imax (%): 0.00%
Apoaequorin [2]
  half decay time of luminescence compared to coelenterazine (native aequorin), in words: markedly prolonged; also recorded: longer half decay time
  Half decay time: 3.42 s
[3]
  Luminescence activity Imax (%): 0.07%
Apoaequorin [4]
  Maximum luminescence wavelength λmax (nm): 507.0 nm

## O=c1c(Cc2ccc(O)cc2)nc2c(-c3ccsc3)[nH]c(-c3ccc(O)cc3)cn1-2 [Compound 3g, 2-(4-Hydroxybenzyl)-6-(4-hydroxyphenyl)-8-(thiophen-3-yl)imidazo[1,2-a]pyrazin-3(7H)-one]
Gaussia luciferase
  Luminescence activity Imax (%): 0.00%
Renilla luciferase
  Luminescence activity Imax (%): 0.00%
[3]
  Luminescence activity Imax (%): 0.3%

## O=c1c(Cc2ccc(O)cc2)nc2c(-c3csc4ccccc34)[nH]c(-c3ccc(O)cc3)cn1-2 [Compound 3i, 8-(Benzo[b]thiophen-3-yl)-2-(4-hydroxybenzyl)-6-(4-hydroxyphenyl)imidazo[1,2-a]pyrazin-3(7H)-one]
Gaussia luciferase
  Luminescence activity Imax (%): 0.00%
Renilla luciferase
  Luminescence activity Imax (%): 0.00%
[3]
  Luminescence activity Imax (%): 0.09%
